Measured values reported in patent US20220105189A1, “POLYETHYLENE GLYCOL CONJUGATED DRUG AND ITS PREPARATION METHOD AND USE” (CHONGQING UPGRA BIOTECHNOLOGY CO., LTD., priority 2019, published 2022).

System: human colon cancer cell colo205
Assay: Anti-tumor efficacy on subcutaneously transplanted tumor of colo205 (Experimental Example 2)
Format: in vivo, Balb/c nude mice
Settings: colo205, Day 19; 23-161 16.06 mg/kg tail vein; PCB 1.73 mg/kg oral
Method: 1. Tumor strain and transplantation method of solid tumor: Human colon cancer cell colo205 was routinely preserved in the cell room of the State Key Laboratory of Molecular Oncology, Institute of Cancer Research, Chinese Academy of Medical Sciences. The tumor cells were taken out of liquid nitrogen, quickly thawed at 37° C., resuscitated and expanded, and then inoculated subcutaneously in the right axillary of healthy Balb/c mice. When the transplanted tumor grew to about 1.0 cm in diameter, the mice were sacrificed. Under aseptic conditions, the tumors were peeled off for passage by conventional methods.
2. Tumor inoculation and grouping: the tumor-bearing mice were sacrificed, the tumors were peeled off under aseptic condition and washed with normal saline several times, the necrotic tissues were removed, the well-growing tumor tissues were selected and divided into 2×2 mm tissue blocks, and the tumor tissue blocks were inoculated subcutaneously in the right axillary with a special metal trocar. After the transplantation of the tumor tissue blocks, administration in groups was carried out on the day of the transplantation.
3. […]
4. Data collection: the mice were weighed, the volume of tumors was measured, the mice were scarified on Day 19, the tumors were weighed, and the tumor inhibition rate (%) was calculated. […]

## CC(=O)c1c(C)c2cnc(Nc3ccc(N4CCNCC4)cn3)nc2n(C2CCCC2)c1=O [PCB, Palbociclib]
  Tumor inhibition rate: −5.8%
  Tumor weight (g) Average: 0.39 g
